Reference: publication doi:10.1101/838656v1 (biorxiv, 2019)
Read-outs that look alike come from different tables or passages of the source.

Legend:
[1] = tested on: HMGA2 (mammalian high mobility group protein AT-hook 2); details: read-out: Lance Screen IC50; DNA-binding compound; inhibitor
[2] = biological target: BRD4-BD1 (bromodomain-containing protein 4) (Homo sapiens, UniProt O60885); test: biochemical
in vitro = details: human, a431 cells
[3] = tested on: HMGA2 (mammalian high mobility group protein AT-hook 2); details: read-out: Alpha Screen IC50; DNA-binding compound; inhibitor

Structure (SMILES)	IC50 [1] [nM]	IC50 [2] [nM]	CC50 (in vitro) [nM]	IC50 [3] [nM]
O=C1c2c(O)ccc(O)c2C(=O)c2c(NCCNCCO)ccc(NCCNCCO)c21 [Mitoxantrone]	1770	990	1650	180
Nc1ccc(-c2nc3ccc(-c4nc5ccc(N)cc5[nH]4)cc3[nH]2)cc1 [Ro 90-7501]		16900	> 100000	
COc1cccc2c1C(=O)c1c(O)c3c(c(O)c1C2=O)C[C@@](O)(C(C)=O)C[C@@H]3O[C@H]1C[C@H](NCc2ccc(CN[C@@H]3C[C@@H](O[C@H]4C[C@](O)(C(C)=O)Cc5c(O)c6c(c(O)c54)C(=O)c4c(OC)cccc4C6=O)O[C@H](C)[C@@H]3O)cc2)[C@H](O)[C@H](C)O1 [WP631]	170	2050	170	44
O=C(O)C1=CC(=C(c2ccc(O)c(C(=O)O)c2)c2ccc(O)c(C(=O)O)c2)C=CC1=O [aurintricarboxylic acid]		5000	> 100000	
Cc1ccc(C(=O)Nc2ccc(S(=O)(=O)O)c3cc(S(=O)(=O)O)cc(S(=O)(=O)O)c23)cc1NC(=O)c1cccc(NC(=O)Nc2cccc(C(=O)Nc3cc(C(=O)Nc4ccc(S(=O)(=O)O)c5cc(S(=O)(=O)O)cc(S(=O)(=O)O)c45)ccc3C)c2)c1 [suramin]		> 100000	> 100000	
